29 compounds from patent publication US8759535B2, “Substituted fused imidazole derivatives, pharmaceutical compositions, and methods of use thereof” (High Point Pharmaceuticals, LLC, priority 2010, dated 2014) can be followed below.

Where a name gives a salt, the structure may show the parent alone.

One assay deals with HMOX1. The assay is described as follows: HMOX1 Protein Assay (immunostaining of HO-1 in NHLF cells, GE InCell 1000). In kind it is cell-based. Particulars: Homo sapiens, fold change above DMSO treated cells, 3 μM compound (asterisk), 16 h. The method, boiled down:
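Fold induction of HO-1 over vehicle, normally at 5 μM compound (asterisk marks 3 μM), in 0.8% DMSO medium. Normal human lung fibroblasts were treated 16 h, then paraformaldehyde-fixed, anti-HO-1/Alexa 488 stained with Hoechst, and read by high-content imaging.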
The compound `COC(C)(C)CNC(=O)c1ccc2c(c1)nc(Nc1nc3ccc(C(F)(F)F)cc3s1)n2C` [Example 208, 1-Methyl-2-(6-trifluoromethyl-benzothiazol-2-ylamino)-1H-benzoimidazole-5-carboxylic acid (2-methoxy-2-methyl-propyl)-amide] had a fold induction at 3 µM of 26.5.

As for `Cn1c(Nc2nc3ccc(Cl)cc3s2)nc2cc(C(=O)NCCOCC(F)F)ccc21` [Example 259, 2-(6-Chloro-benzothiazol-2-ylamino)-1-methyl-1H-benzoimidazole-5-carboxylic acid [2-(2,2-difluoro-ethoxy)-ethyl]-amide], the fold induction at 3 µM was found to be 25.4.

`Cn1c(Nc2nc3ccc(Cl)cc3s2)nc2cc(C(=O)NCC(=O)N3CC[C@@H](O)C3)ccc21` [Example 400, 2-(6-Chloro-benzothiazol-2-ylamino)-1-methyl-1H-benzoimidazole-5-carboxylic acid [2-((R)-3-hydroxy-pyrrolidin-1-yl)-2-oxo-ethyl]-amide] registered a fold induction at 3 µM of 15.

Consider `CO[C@@H]1CCN(C(=O)CNC(=O)c2ccc3c(c2)nc(Nc2nc4ccc(Cl)cc4s2)n3C)C1` [Example 408, 2-(6-Chloro-benzothiazol-2-ylamino)-1-methyl-1H-benzoimidazole-5-carboxylic acid [2-((R)-3-methoxy-pyrrolidin-1-yl)-2-oxo-ethyl]-amide], for which the fold induction at 3 µM was found to be 25.

The compound `CN(C)CCCC[C@H](NC(=O)c1ccc2c(c1)nc(Nc1nc3ccc(C(F)(F)F)cc3s1)n2C)C(=O)N(C)C` [Example 370, 1-Methyl-2-(6-trifluoromethyl-benzothiazol-2-ylamino)-1H-benzoimidazole-5-carboxylic acid ((S)-5-dimethylamino-1-dimethylcarbamoyl-pentyl)-amide] returned a fold induction at 3 µM of 19.3.

`Cn1c(Nc2nc3ccc(C(F)(F)F)cc3s2)nc2cc(C(=O)NCCCCCO)ccc21` [Example 228, 1-Methyl-2-(6-trifluoromethyl-benzothiazol-2-ylamino)-1H-benzoimidazole-5-carboxylic acid (5-hydroxy-pentyl)-amide] yielded a fold induction at 3 µM of 26.

The same assay, now with this note: Homo sapiens, fold change above DMSO treated cells, 5 μM compound, 16 h.
Compound `Cn1c(Nc2nc3ccc(Cl)cc3s2)nc2cc(C(=O)NCC(=O)N3CCOCC3)ccc21` [Example 421, 2-(6-Chloro-benzothiazol-2-ylamino)-1-methyl-1H-benzoimidazole-5-carboxylic acid (2-morpholin-4-yl-2-oxo-ethyl)-amide] displayed a fold induction at 5 µM of 32.2.

Consider `CNC1CCN(C(=O)CNC(=O)c2ccc3c(c2)nc(Nc2nc4ccc(Cl)cc4s2)n3C)CC1` [Example 454, 2-(6-Chloro-benzothiazol-2-ylamino-1-methyl-1H-benzoimidazole-5-carboxylic acid [2-(4-methylamino-piperidin-1-yl)-2-oxo-ethyl]-amide hydrochloride], for which the fold induction at 5 µM is 62.2.

For `Cn1c(Nc2nc3ccc(OC(F)(F)F)cc3s2)nc2cc(C(=O)NCCNS(C)(=O)=O)ccc21` [Example 322, 1-Methyl-2-(6-trifluoromethoxy-benzothiazol-2-ylamino)-1H-benzoimidazole-5-carboxylic acid (2-methanesulfonylamino-ethyl)-amide], the fold induction at 5 µM came out at 36.

Regarding `CCn1c(Nc2nc3ccc(OC(F)(F)F)cc3s2)nc2cc(C(=O)OC)ccc21` [Example 153, 1-Ethyl-2-(6-trifluoromethoxy-benzothiazol-2-ylamino)-1H-benzoimidazole-5-carboxylic acid methyl ester], the fold induction at 5 µM worked out at 4.

Regarding `Cn1c(Nc2nc3ccc(C(F)(F)F)cc3s2)nc2cc(C(=O)NCCO)ccc21` [Example 27, 1-Methyl-2-(6-trifluoromethyl-benzothiazol-2-ylamino)-1H-benzoimidazole-5-carboxylic acid (2-hydroxy-ethyl)-amide], the fold induction at 5 µM came out at 23.2.

Regarding `Cn1c(Nc2nc3ccc(OC(F)(F)F)cc3s2)nc2cc(C(=O)NC3CCS(=O)(=O)C3)ccc21` (centres unmarked) [Example 121, 1-Methyl-2-(6-trifluoromethoxy-benzothiazol-2-ylamino)-1H-benzimidazole-5-carboxylic acid (1,1-dioxo-tetrahydro-1λ^6-thiophen-3-yl)-amide], the fold induction at 5 µM is 29.6.

`Cn1c(Nc2nc3ccc(OC(F)(F)F)cc3s2)nc2cc(C(=O)NC3CCCNC3)ccc21` (centres unmarked) [Example 95, 1-Methyl-2-(6-trifluoromethoxy-benzothiazol-2-ylamino)-1H-benzoimidazole-5-carboxylic acid piperidin-3-ylamide hydrochloride] had a fold induction at 5 µM of 11.2.

On to `Cn1c(Nc2nc3ccc(Cl)cc3s2)nc2cc(C(=O)NCCOCCCO)ccc21` [Example 248, 2-(6-Chloro-benzothiazol-2-ylamino)-1-methyl-1H-benzoimidazole-5-carboxylic acid [2-(3-hydroxy-propoxy)-ethyl]-amide], for which the fold induction at 5 µM was 58.7.

The compound `Cn1c(Nc2nc3ccc(Cl)cc3s2)nc2cc(C(=O)NCC(=O)N3CCC(O)CC3)ccc21` [Example 436, 2-(6-Chloro-benzothiazol-2-ylamino)-1-methyl-1H-benzoimidazole-5-carboxylic acid [2-(4-hydroxy-piperidin-1-yl)-2-oxo-ethyl]-amide] yielded a fold induction at 5 µM of 29.3.

Take `Cn1c(Nc2nc3ccc(S(C)(=O)=O)cc3s2)nc2cc(C(=O)NCCS(C)(=O)=O)ccc21` [Example 131, 2-(6-Methanesulfonyl-benzothiazol-2-ylamino)-1-methyl-1H-benzimidazole-5-carboxylic acid (2-methylsulfonyl-ethyl)-amide]: the fold induction at 5 µM amounted to 6.8.

Consider `CN(C)CC1CCCN(C(=O)CNC(=O)c2ccc3c(c2)nc(Nc2nc4ccc(Cl)cc4s2)n3C)C1` (centres unmarked) [Example 461, 2-(6-Chloro-benzothiazol-2-ylamino)-1-methyl-1H-benzoimidazole-5-carboxylic acid [2-(3-dimethylaminomethyl-piperidin-1-yl)-2-oxo-ethyl]-amide], for which the fold induction at 5 µM is 27.1.

With `COCCOCCNC(=O)c1ccc2c(c1)nc(Nc1nc3ccc(OC(F)(F)F)cc3s1)n2C` [Example 260, 1-Methyl-2-(6-trifluoromethoxy-benzothiazol-2-ylamino)-1H-benzoimidazole-5-carboxylic acid [2-(2-methoxy-ethoxy)-ethyl]-amide], the fold induction at 5 µM turned out to be 27.1.

`Cn1c(Nc2nc3ccc(F)cc3s2)nc2cc(C(=O)O)ccc21` [Example 118, 2-(6-Fluoro-benzothiazol-2-ylamino)-1-methyl-1H-benzimidazole-5-carboxylic acid] returned a fold induction at 5 µM of 14.1.

On to `Cn1c(Nc2nc3ccc(Cl)cc3s2)nc2cc(C(=O)NCCNCCF)ccc21` [Example 279, 2-(6-Chloro-benzothiazol-2-ylamino)-1-methyl-1H-benzoimidazole-5-carboxylic acid [2-(2-fluoro-ethylamino)-ethyl]-amide hydrochloride], for which the fold induction at 5 µM was found to be 89.2.

With `Cn1c(Nc2nc3ccc(Cl)cc3s2)nc2cc(C(=O)NCC(=O)N3CCSCC3)ccc21` [Example 423, 2-(6-Chloro-benzothiazol-2-ylamino)-1-methyl-1H-benzoimidazole-5-carboxylic acid (2-oxo-2-thiomorpholin-4-yl-ethyl)-amide], the fold induction at 5 µM was 30.2.

In turn, `CCNC(=O)[C@H](C)NC(=O)c1ccc2c(c1)nc(Nc1nc3ccc(OC(F)(F)F)cc3s1)n2C` [Example 81, 1-Methyl-2-(6-trifluoromethoxy-benzothiazol-2-ylamino)-1H-benzoimidazole-5-carboxylic acid ((S)-1-ethylcarbamoyl-ethyl)-amide] yielded a fold induction at 5 µM of 17.

Take `Cn1c(Nc2nc3ccc(OC(F)(F)F)cc3s2)nc2cc(C(=O)NN3CCOCC3)ccc21` [Example 15, 1-Methyl-2-(6-trifluoromethoxy-benzothiazol-2-ylamino)-1H-benzoimidazole-5-carboxylic acid morpholin-4-ylamide]: the fold induction at 5 µM stood at 22.8.

Regarding `COCCNC(=O)c1cc2nc(Nc3nc4ccc(OC(F)(F)F)cc4s3)n(C)c2cc1F` [Example 39, 6-Fluoro-1-methyl-2-(6-trifluoromethoxy-benzothiazol-2-ylamino)-1H-benzoimidazole-5-carboxylic acid (2-methoxy-ethyl)-amide], the fold induction at 5 µM is 18.2.

For `COCC1CCN(C(=O)CNC(=O)c2ccc3c(c2)nc(Nc2nc4ccc(OC(F)(F)F)cc4s2)n3C)CC1` [Example 447, 1-Methyl-2-(6-trifluoromethoxy-benzothiazol-2-ylamino)-1H-benzoimidazole-5-carboxylic acid [2-(4-methoxymethyl-piperidin-1-yl)-2-oxo-ethyl]-amide], the fold induction at 5 µM turned out to be 58.4.

On to `COC(=O)c1ccc2c(c1)nc(Nc1nc3cc(F)ccc3s1)n2C` [Example 111, 2-(5-Fluoro-benzothiazol-2-ylamino)-1-methyl-1H-benzoimidazole-5-carboxylic acid methyl ester], for which the fold induction at 5 µM was determined as 17.6.

Compound `Cn1c(Nc2nc3ccc(OC(F)(F)F)cc3s2)nc2cc(C(=O)NC[C@H]3CC[C@H](CO)CC3)ccc21` [Example 254, 1-Methyl-2-(6-trifluoromethoxy-benzothiazol-2-ylamino)-1H-benzoimidazole-5-carboxylic acid (trans-4-hydroxymethyl-cyclohexylmethyl)-amide] displayed a fold induction at 5 µM of 47.4.

`Cn1c(Nc2nc3ccc(Cl)cc3s2)nc2cc(C(=O)N[C@@H]3CCCNC3)ccc21` [Example 309, 2-(6-Chloro-benzothiazol-2-ylamino)-1-methyl-1H-benzoimidazole-5-carboxylic acid (R)-piperidin-3-ylamide hydrochloride]: the fold induction at 5 µM was 21.5.

`CNC(=O)c1ccc2c(c1)nc(Nc1nc3cc(F)ccc3s1)n2C` [Example 122, 2-(5-Fluoro-benzothiazol-2-ylamino)-1-methyl-1H-benzimidazole-5-carboxylic acid methylamide] registered a fold induction at 5 µM of 26.1.

What is called fold induction is the signal under treatment as a multiple of the control signal.
